Reference: the supplement of paper PMC11997997

Legend:
[1] = tested on: murine bone marrow-derived macrophages; test: area under cytotoxicity dose-response curve (AUC (% cytotoxicity x dose, relative)); higher = more cytotoxic; details: duration: 6 days; dose range: 0.13-80 uM, 8 points
How it was run: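 Primary murine bone marrow-derived macrophages in opaque 384-well plates were exposed to an 8-point, 2.5-fold dilution series (final 80–0.13 μM) for 6 days at 37 °C in 5% CO2. Viability was read with Promega's CellTiter-Glo luminescence assay, and percent cytotoxicity was normalised to vehicle and positive control wells. Cytotoxicity is reported as the area under the dose–response curve, calculated in GraphPad Prism version 10.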

[2] = tested on: Mycobacterium tuberculosis CDC1551 (intracellular, in murine BMDM); test: area under intracellular growth-inhibition dose-response curve (AUC (% inhibition x dose, relative)); higher = more potent; details: duration: 6 days; dose range: 0.13-80 uM, 8 points
How it was run: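 Macrophages derived from primary murine bone marrow were infected for 1 h at multiplicity of infection 1 with luciferase-expressing M. tuberculosis CDC1551, then treated for 6 days at final concentrations of 80–0.13 μM. Bright-Glo luciferin signal, normalised to a reference drug control and the lowest-concentration wells, gave the growth readout. Area under the growth-inhibition dose–response curve was then calculated in GraphPad Prism.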

SMILES	area under cytotoxicity dose-response curve [1]	area under intracellular growth-inhibition dose-response curve [2]
C/C(CC(=O)Nc1cccc(F)c1)=N\NC(=O)c1ccncc1	9.96	272
COc1ccc(/C=C/C(=O)c2ccc([N+](=O)[O-])o2)cc1OC	118	3.95
FC(F)(F)c1nnc2ccc(Cl)nn12	62.7	36.2
O=C(NC1CCCCCC1)c1ccc(Br)o1	27.7	231
Cc1ccccc1OCC(=O)NC(=S)Nc1ccc(N2CCCC2)cc1	105	182
CCCc1ccc(C(=O)CCC(=O)NNC(=O)c2ccncc2)cc1	9.69	270
Cc1ccc(C2=NCCn3c2c2ccc(C(F)(F)F)cc2[n+]3[O-])cc1	< 0	161
O=C(COC(=O)c1ccccc1NCCO)NCC1CCCCC1	58.4	151
CCCN(CCC)CC(O)Cn1cc(/C=C/C(=O)c2cccs2)c2ccccc21 (stereo not given)	2.01	231
Cc1ccc(S(=O)(=O)c2ccc([N+](=O)[O-])cn2)cc1	102	< 0
O=C(CCN1C(=O)/C(=C/c2cccs2)SC1=S)Nc1ccc(C(=O)O)c(O)c1	68.2	189
O=C(Nc1ccc(N2CCN(C(=O)c3ccc(Cl)cc3)CC2)cc1)c1ccc([N+](=O)[O-])o1	34.5	246
Cc1ccc(/C=C2\SC(N3CCCC3)=NC2=O)cc1	22.9	220
COC(=O)c1cccc(/C=N/NC(N)=S)c1O	32.1	144
CC(=O)Oc1c(C)cc(Cl)cc1C(=O)Nc1ccc([N+](=O)[O-])cc1Cl	113	230
CC(=O)N1CCN(c2ccc(NC(=O)c3ccc([N+](=O)[O-])o3)cc2Cl)CC1	88.8	49.4
CN(C)S(=O)(=O)c1ccc(C(=O)OCC(=O)Nc2ccc3c(c2)OCO3)cc1	38.4	11.2
NC1=NC(=O)/C(=C/c2ccc(Cl)cc2Cl)S1	< 0	129
COc1cc2c(cc1OC)CN(C(=O)c1ccc([N+](=O)[O-])o1)CC2	37	101
NNC(=O)c1ccncc1	< 0	272
CCc1nnc(NS(=O)(=O)c2ccc(N/C=C3/C(=O)NC(=O)N(c4ccccc4)C3=O)cc2)s1	38	31
CN(C)c1ccc(S(=O)(=O)N2CCCCC2)cc1NC(=O)CCNC(=O)c1ccccc1Cl	< 0	67.5
Cc1cc(C)c2c(n1)sc1c(N3CCCCC3)ncnc12	73.3	142
CC[C@H]1OC(=O)[C@H](C)[C@@H](O[C@H]2C[C@@](C)(OC)[C@@H](O)[C@H](C)O2)[C@H](C)[C@@H](O[C@@H]2O[C@H](C)C[C@H](N(C)C)[C@H]2O)[C@](C)(O)C[C@@H](C)C(=NOCOCCOC)[C@H](C)[C@@H](O)[C@]1(C)O	7.74	204
C/C(=N\NC(=O)c1ccncc1)c1cccnc1	90.7	129
